Test results as given in publication PMC12916490 (Molecular Psychiatry, 2025).
Read-outs that look alike come from different tables or passages of the source.

Experiments:
h5-HT1A = target: T1, h5-HT1A (Homo sapiens, UniProt P08908); experiment: Radioligand binding, h5-HT1A receptor ([3H]8-OH-DPAT)
T1 construct: expressed in transfected cells; host or cells: HEK 293 cells (membrane preparation)
T1 sequence (P08908 1-422): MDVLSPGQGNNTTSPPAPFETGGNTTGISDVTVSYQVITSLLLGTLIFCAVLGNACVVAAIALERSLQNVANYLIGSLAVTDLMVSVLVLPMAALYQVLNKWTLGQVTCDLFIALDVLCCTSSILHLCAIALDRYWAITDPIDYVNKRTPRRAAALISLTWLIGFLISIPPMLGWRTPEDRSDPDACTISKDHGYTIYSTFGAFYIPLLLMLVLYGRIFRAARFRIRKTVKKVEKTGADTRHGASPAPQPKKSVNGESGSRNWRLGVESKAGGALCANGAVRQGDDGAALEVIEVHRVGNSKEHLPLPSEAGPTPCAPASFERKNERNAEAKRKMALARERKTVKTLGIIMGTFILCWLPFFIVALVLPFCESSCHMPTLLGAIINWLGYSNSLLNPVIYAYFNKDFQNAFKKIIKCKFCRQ

Human = tested on: Human; design: method as in ref 48 (PiHKAL: A Chemical Love Story); details: ref 48 (PiHKAL: A Chemical Love Story); cited from earlier work
h5-HT2A = h5-HT2A (Homo sapiens, UniProt P28223); experiment: Arachidonic acid release (Gαi/o,12/13 marker), h5-HT2A; assay type: cell-based; design: expressed in transfected cells; host or cells: HEK 293 cells (membrane preparation); details: for Emax: read-out: Arachidonic acid release Emax h5-HT2A (95% CI)
Chain of h5-HT2A (P28223 whole entry, looked up): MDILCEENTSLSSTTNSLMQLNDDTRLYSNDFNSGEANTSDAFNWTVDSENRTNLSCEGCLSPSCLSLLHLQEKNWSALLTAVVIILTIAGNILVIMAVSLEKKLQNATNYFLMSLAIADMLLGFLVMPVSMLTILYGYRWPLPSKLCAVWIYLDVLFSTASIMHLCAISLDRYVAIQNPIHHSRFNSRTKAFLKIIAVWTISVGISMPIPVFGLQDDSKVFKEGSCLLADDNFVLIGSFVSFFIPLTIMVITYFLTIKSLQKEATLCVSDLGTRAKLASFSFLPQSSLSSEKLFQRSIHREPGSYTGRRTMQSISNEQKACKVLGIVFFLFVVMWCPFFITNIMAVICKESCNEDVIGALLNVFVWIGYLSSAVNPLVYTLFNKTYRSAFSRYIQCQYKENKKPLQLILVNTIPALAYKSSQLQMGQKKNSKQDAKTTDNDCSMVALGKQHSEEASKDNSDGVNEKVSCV
Description: Activation of h5-HT2A, h5-HT2B, and h5-HT2C receptors was examined by measuring the accumulation of inositol monophosphate (IP1) as a marker for Gαq-mediated signaling. For h5-HT2A, additional assays measured β-arrestin 2 recruitment and arachidonic acid release, the latter serving as a marker of Gαi/o,12/13 activation. The methodology is described in detail in the Supplementary information.
The IC50 values from the radioligand binding assays were determined by nonlinear regression, using three independent concentration-response curves fitted to a one-site model. The Cheng-Prusoff equation was used to calculate Kᵢ values for the competing ligands. EC50 values were determined by applying nonlinear regression to concentration-response curves. Bias factors (β) were calculated based on the relative intrinsic activity approach. More detailed information can be found in the Supplementary information. Mean values for total number of HTR, change in body temperature from pre to post session (Δ°C), and total distance traveled (cm) for each drug dose were compared (p < 0.05) via Welch’s ANOVA with Dunnett’s T3 post test, comparing all doses to respective vehicle controls (0 mg/kg). Welch’s ANOVA with Dunnett’s T3 post test was also used to compare drug concentrations, but the data were compared to DOM in this case. Dose–response relationships for HTR and locomotor activities were plotted using bell-shaped curve fits, while temperature change data were plotted using four-parameter non-linear regression curve fits. The ascending phase of the HTR curve for each drug was used to determine ED50 potency values from four parameter non-linear regression fits. For combined DOM and DOAM administration, the plasma, brain tissue, and brain dialysate drug concentrations were compared using paired t-tests (p < 0.05). […]
the β-arrestin 2 molecule in the NanoBiT system) were seeded at a density of 50,000 cells per well in poly - D-lysine-coated 96-well plates in medium containing 10% dialyzed FBS. The plate was then incubated at […]
The following day, the cells were washed twice with 150 µL HBSS, and 100 µL HBSS was subsequently added to each well. Thereafter, 25 µL of substrate (1 :20 diluted in buffer) was added, and […]
agonist solutions was added, and the signal was monitored for 2 h. Drug dilutions in HBSS were made from 10 mM stock solutions in DMSO , yielding concentration ranges from 10 µM to 10 pM. All concentrations were run in duplicate and included the appropriate solvent controls. Efficacy was normalized to 5 -HT […]
3.2.3 Arachidonic acid release
Arachidonic acid release was assessed as a marker for Gαi/o,12/13 mediated signaling.
NIH/3T3 cells stably expressing the 5 -HT2A receptor were seeded at a density of 75,000 cells per well in a poly-D-lysine-coated 48-well plate. The following day, the cells were labeled with 300 μL [ 3H]arachidonic […]
Thereafter, the cells were washed 3 times for
(10 mM) of test substances were prepared in DMSO. The final dilution series of test substances dissolved […]
Thereafter, the plate was put on ice, and 400 μL incubation supernatant per well was transferred int o scintillation vials containing scintillation fluid (Ultimagold, Perkin Elmer, Schwerzenbach, Switzerland). The remaining supernatant was removed, and the cells were lysed with 1% sodium dodecyl sulfate lysis buffer. The obtained cell lysate was transferred into scintillation vials containing scintillation fluid. Radioactivity was measured on a liquid scintillation counter (Packard 1900 TR Tri-Carb Liquid Scintillation Counter; Packard Instrument Company). Efficacy was normalized to 5-HT activity.
3.2.4 Calculation of bias factors […]
using 5-HT as the reference agonist.
RApathway = EC50, i = EC50, ref×Emax,i […]

| Structure (SMILES) | Ki (h5-HT1A) | Human dose (Human) | Agonist type for Gαi/o,12/13-mediated signaling at the 5-HT2A receptor (h5-HT2A) | Emax (h5-HT2A) | EC50 (h5-HT2A) | Ki (h5-HT1A; read-out: Ki h5-HT1A (95% CI), receptor binding, HEK 293 membranes) |
| --- | --- | --- | --- | --- | --- | --- |
| COc1ccc(OC)c(CC(C)N)c1.Cl (stereo not shown) [2,5-DMA, 2,5-Dimethoxyamphetamine hydrochloride] | 6.02 µM | 80 to 160 mg | high efficacy partial agonists | 59% | – | – |
| CCCCCc1cc(OC)c(CC(C)N)cc1OC (stereo not shown) [DOAM, 4-amyl-2,5-dimethoxyamphetamine] | 8.42 µM | > 10 mg | high efficacy partial agonists | 91% | 2.4 nM | – |
| CCCCc1cc(OC)c(CC(C)N)cc1OC (stereo not shown) [DOBU, 4-butyl-2,5-dimethoxyamphetamine] | 13.5 µM | Uncertain | high efficacy partial agonists | 74% | 2 nM | – |
| CCc1cc(OC)c(CC(C)N)cc1OC (stereo not shown) [DOET, 4-ethyl-2,5-dimethoxyamphetamine] | 5.76 µM | 2.0 to 6.0 mg | high efficacy partial agonists | 88% | 1.5 nM | – |
| COc1cc(CC(C)N)c(OC)cc1C (stereo not shown) [DOM, 4-methyl-2,5-dimethoxyamphetamine] | – | 3.0 to 10.0 mg | high efficacy partial agonists | 75% | 3.7 nM | 7.24 µM |
| CCCc1cc(OC)c(CC(C)N)cc1OC.Cl (stereo not shown) [DOPR, 4-propyl-2,5-dimethoxyamphetamine hydrochloride] | 3.95 µM | 2.5 to 5.0 mg | – | 117% | 0.86 nM | – |
